Measured values published in PubChem BioAssay (NCI).
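48-hour exposure; five concentrations; linearly interpolated endpoints. TGI marks complete inhibition of growth.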

Tests used:
Test in all cases: NCI anticancer screen, dose series, 48 h
[1] = test system: UACC-62 melanoma
[2] = test system: NCI-H226 lung
[3] = test system: 786-0 renal
[4] = test system: HCT-15 colon
[5] = test system: NCI-H23 lung
[6] = test system: OVCAR-5 ovarian
[7] = test system: TK-10 renal
[8] = test system: HT29 colon
[9] = test system: MCF7 breast
[10] = test system: U251 CNS
[11] = test system: SK-MEL-5 melanoma
[12] = test system: RPMI-8226 leukemia
[13] = test system: NCI/ADR-RES ovarian
[14] = test system: COLO 205 colon
[15] = test system: EKVX NSCLC
[16] = test system: HOP-62 NSCLC
[17] = test system: M14 melanoma
[18] = test system: SK-OV-3 ovarian
[19] = test system: UACC-257 melanoma
[20] = test system: SN12C renal
[21] = test system: A549 NSCLC
[22] = test system: MDA-N
[23] = test system: BT-549 breast
[24] = test system: SF-295 CNS
[25] = test system: SK-MEL-2 melanoma
[26] = test system: HS 578T breast
[27] = test system: MDA-MB-231 breast
[28] = test system: T-47D breast
[29] = test system: DU-145 prostate
[30] = test system: RXF 393 renal
[31] = test system: K-562 leukemia
[32] = test system: LOX IMVI melanoma
[33] = test system: HCC-2998 colon
[34] = test system: A498 renal
[35] = test system: PC-3 prostate
[36] = test system: HOP-92 NSCLC
[37] = test system: SNB-75 CNS
[38] = test system: OVCAR-3 ovarian
[39] = test system: OVCAR-8 ovarian
[40] = test system: SR leukemia
[41] = test system: CAKI-1 renal
[42] = test system: SW-620 colon
[43] = test system: IGROV1 ovarian
[44] = test system: SF-268 CNS
[45] = test system: HCT-116 colon
[46] = test system: SK-MEL-28 melanoma
[47] = test system: UO-31 renal
[48] = test system: MDA-MB-435
[49] = test system: KM12 colon
[50] = test system: OVCAR-4 ovarian
[51] = test system: ACHN renal
[52] = test system: NCI-H522 lung
[53] = test system: NCI-H460 lung
[54] = test system: MALME-3M melanoma
[55] = test system: SNB-19 CNS
[56] = test system: SF-539 CNS
[57] = test system: HL-60(TB) leukemia
[58] = test system: MOLT-4 leukemia
[59] = test system: CCRF-CEM leukemia

Measured: TGI

OCC1CCCC(n2cnc3c(=S)nc[nH]c32)O1 (configuration not stated)
not listed: [56] | [57] | [58] | [59]
> 100 µM: all other assays above

CC(C)(C)OC(=O)NCCCCC(NC(=O)OCc1ccccc1)C(N)=O (configuration not stated)
not listed: [34] | [36]
> 100 µM: all other assays above
